Data: patent publication US6187296A, “Lysine decarboxylase inhibitors for the prevention and treatment of periodontal disease” (priority 2000, dated 2001)

What was measured:
lysine decarboxylase [1] = biological target: T1, lysine decarboxylase (Selenomonas ruminantium, UniProt O50657); settings: cited from earlier work
T1 construct: host or cells: Selenomonas ruminantium

lysine decarboxylase [2] = settings: Mycoplasma dispar; cited from earlier work
lysine decarboxylase [3] = biological target: lysine decarboxylase (Eikenella corrodens, UniProt Q9Z4R7); assay: Cadaverine production by E. corrodens extract as a function of initial lysine concentration; assay type: biochemical; settings: 0.42 mM EACA
Protocol: FIGS. 4A and 4B are graphs showing cadaverine production as a function of initial lysine concentration in the presence and absence of […] ε-amino-n-caproic acid (EACA). […] Initial rate of cadaverine produced (from 0.3 μg E. corrodens extract protein/ml) graphed against the initial lysine concentration. A. Cadaverine produced after 20 min: Enzyme only: .circle-solid.-.circle-solid.; with 0.42 ImM EACA .smallcircle. . . . .smallcircle.. B. Enlarged inset, cadaverine produced after 16 h (limited substrate): Enzyme only .circle-solid.-.circle-solid.; with 0.42 mM EACA .smallcircle. . . . .smallcircle..
The results of FIG. 1 were obtained when 0.1 ml of E. corrodens extract (10 μg protein/ml), or plaque extract (100 μg protein/ml) was added to 0.5×10^5 HL60 cells or 2×10^5 HeLa cells in 0.5 ml growth medium in 48-well plates (Costar, Cambridge, Mass.). The cells were incubated for 96 h at 37° C. in 5% CO2 in air, examined visually and counted on a Coulter Counter (Coulter Electronics Hialeah, Fla.). […] The samples were incubated at 43° C. for 5.0 min, vortexed with 2.0 ml toluene for 20 sec, centrifuged at 2,000 rpm for 5 min and the absorbance of the toluene layer read at 340 nm. From a standard curve, the cadaverine produced was measured and subtracted from the amount of free lysine initially in the medium plus extract after 16 h or 40 h. […]

HL60 cells = assay type: cell-based; settings: FIG. 3; control 0.22 mM lysine; 0.72 mM lysine and/or 0.42 mM EACA
Protocol: Graphs show the percent growth inhibition after 96 h (2A) and the percent lysine remaining (2B) after 40 h incubation (obtained as described in legend to FIG. 1).

lysine decarboxylase [4] = biological target: T2, lysine decarboxylase (Escherichia coli, UniProt P0A9H3); settings: cited from earlier work
T2 construct: host or cells: Escherichia coli

lysine decarboxylase [5] = assay: Lysine decarboxylase activity in Mycoplasma dispar; assay type: biochemical; settings: half of the DL-form inhibiting values
lysine decarboxylase [6] = biological target: T1, lysine decarboxylase; assay: Lysine decarboxylase activity in Selenomonas ruminantium; assay type: biochemical; settings: half of the DL-form inhibiting values, read-out: Equivalent L inhibitory values

T1 sequence (O50657 whole entry): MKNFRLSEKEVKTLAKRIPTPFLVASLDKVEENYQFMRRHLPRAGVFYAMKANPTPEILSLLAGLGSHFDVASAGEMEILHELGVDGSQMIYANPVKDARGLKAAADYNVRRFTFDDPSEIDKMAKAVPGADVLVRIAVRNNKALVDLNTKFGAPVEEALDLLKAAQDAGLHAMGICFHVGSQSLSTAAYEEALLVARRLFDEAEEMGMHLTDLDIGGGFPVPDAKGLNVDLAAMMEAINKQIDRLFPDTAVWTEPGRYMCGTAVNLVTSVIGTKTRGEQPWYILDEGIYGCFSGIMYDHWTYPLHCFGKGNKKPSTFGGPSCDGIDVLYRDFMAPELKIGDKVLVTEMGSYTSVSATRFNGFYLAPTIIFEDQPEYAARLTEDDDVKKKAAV
Sequence of lysine decarboxylase (Eikenella corrodens, UniProt Q9Z4R7) (Q9Z4R7 entry or part of it): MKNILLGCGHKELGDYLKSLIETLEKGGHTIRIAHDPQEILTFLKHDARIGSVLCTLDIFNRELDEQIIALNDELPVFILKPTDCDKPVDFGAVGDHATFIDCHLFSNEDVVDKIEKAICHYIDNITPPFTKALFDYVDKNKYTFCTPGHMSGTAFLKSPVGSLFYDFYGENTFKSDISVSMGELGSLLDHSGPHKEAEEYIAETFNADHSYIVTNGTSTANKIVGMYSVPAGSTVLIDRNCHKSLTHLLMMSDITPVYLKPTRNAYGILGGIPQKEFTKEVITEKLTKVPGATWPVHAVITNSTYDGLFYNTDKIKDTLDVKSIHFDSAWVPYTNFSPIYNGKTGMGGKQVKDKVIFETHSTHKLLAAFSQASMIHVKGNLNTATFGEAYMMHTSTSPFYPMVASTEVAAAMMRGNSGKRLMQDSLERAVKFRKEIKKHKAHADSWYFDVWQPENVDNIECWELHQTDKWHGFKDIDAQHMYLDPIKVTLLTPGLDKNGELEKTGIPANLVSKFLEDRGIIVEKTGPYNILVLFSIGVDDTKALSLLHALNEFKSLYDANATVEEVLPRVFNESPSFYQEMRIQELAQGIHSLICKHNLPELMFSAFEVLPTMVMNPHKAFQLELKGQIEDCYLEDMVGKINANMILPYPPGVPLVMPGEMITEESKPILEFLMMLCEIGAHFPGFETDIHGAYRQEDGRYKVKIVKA
T2 sequence (P0A9H3 whole entry): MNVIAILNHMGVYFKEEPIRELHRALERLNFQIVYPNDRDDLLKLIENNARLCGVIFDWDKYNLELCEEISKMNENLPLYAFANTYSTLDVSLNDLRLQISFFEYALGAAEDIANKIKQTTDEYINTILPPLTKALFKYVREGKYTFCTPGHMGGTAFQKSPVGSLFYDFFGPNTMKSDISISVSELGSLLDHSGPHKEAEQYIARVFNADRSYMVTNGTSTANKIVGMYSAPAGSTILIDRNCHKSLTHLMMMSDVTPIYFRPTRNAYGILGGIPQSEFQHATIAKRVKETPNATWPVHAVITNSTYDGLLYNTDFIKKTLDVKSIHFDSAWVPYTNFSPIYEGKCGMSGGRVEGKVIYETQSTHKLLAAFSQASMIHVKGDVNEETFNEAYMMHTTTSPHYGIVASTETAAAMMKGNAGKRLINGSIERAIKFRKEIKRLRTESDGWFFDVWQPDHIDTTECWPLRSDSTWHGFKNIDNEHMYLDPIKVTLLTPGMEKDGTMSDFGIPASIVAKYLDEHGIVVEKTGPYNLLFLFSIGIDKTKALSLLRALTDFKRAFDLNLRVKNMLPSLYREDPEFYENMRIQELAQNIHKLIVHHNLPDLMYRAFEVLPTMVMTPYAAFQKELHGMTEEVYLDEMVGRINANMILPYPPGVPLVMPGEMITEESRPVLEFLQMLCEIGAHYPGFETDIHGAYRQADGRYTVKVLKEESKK

| SMILES | Effect on lysine decarboxylase activity (lysine decarboxylase [1]) | Effect on lysine decarboxylase activity (lysine decarboxylase [2]) | Effect on growth inhibiting activity of E. corrodens extract (HL60 cells) | other results |
| --- | --- | --- | --- | --- |
| NCCCC(N)(C(=O)O)C(F)F (racemic) [DFMO] | no effect | no effect |  |  |
| N=C(N)NCCCC(N)(C(=O)O)C(F)F (racemic) [DFMR] | no effect | no effect |  |  |
| NCCCCCC(=O)O [EACA, ε-amino-n-caproic acid] |  |  | increased the growth inhibition | Effect on the E. corrodens enzyme at high lysine concentrations (lysine decarboxylase [3]; high lysine concentrations): inhibits the enzyme; Effect on the E. corrodens enzyme at low lysine concentrations (lysine decarboxylase [3]; lysine 0.22-0.72 mM as in growth media): activates the enzyme; Effect on lysine decarboxylase from E. coli (lysine decarboxylase [4]): inhibits |
| NCCCC[C@](N)(C(=O)O)C(F)F [L-DFML] |  |  |  | Equivalent L inhibitory values (lysine decarboxylase [5]): 0.05 to 0.50 mM; IC100 (lysine decarboxylase [6]): 50 to 500 µM |
| NCCCC[C@H](N)C(=O)O [lysine] |  |  | decreased the growth inhibiting activity |  |
